Experimental data as given in patent publication US9782412B2, “Preventive and/or therapeutic agent of immune disease” (TAIHO PHARMACEUTICAL CO., LTD., priority 2015, dated 2017).

Tested on: A431 cells/TMD8 cells
Assay: Proliferation inhibitory activity against cell lines expressing BTK and EGFR, comparison of selectivity
Assay type: cell-based, human
Conditions: cells cultured three days with compound, CELLTITER GLO
From the text: TMD8 cells, which are of a diffuse large B-cell lymphoma cell line expressing BTK, were suspended in RPMI1640 medium (Life Technologies Corp.) containing 10% fetal bovine serum. A431 cells, which are of an EGFR-overexpressing, highly activated human epidermoid carcinoma cell line, were suspended in DMEM, high glucose medium (Life Technologies Corp.) containing 10% fetal bovine serum. The cell suspensions were inoculated into each well of 384-well flat-bottomed microplates, and the cells were cultured for one day at 37° C. in an incubator containing 5% carbon dioxide gas. […] A DMSO solution of the test compounds was diluted with the medium used in the suspension of the each cell, and this was added to each of the wells of the cell culture plates such that the final concentration of DMSO would be 0.2%. The cells were further cultured for three days at 37° C. in an incubator containing 5% carbon dioxide gas. […] Proliferation inhibition ratio (%)=(C−T)/(C−C0)×100
T: Luminescence intensity of a well in which the test compound was added
C: Luminescence intensity of a well in which the test compound was not added
C0: Luminescence intensity of a well measured before the addition of the test compound
When a comparison is made between the cell proliferation inhibitory activity against A431 cells that depends on the EGFR proliferation signaling and the cell proliferation inhibitory activity against TMD8 cells that depends on the BTK proliferation signaling, the influence of the respective kinases at a cellular level is able to be evaluated. That is, when the “A431 cell proliferation inhibition ratio/TMD8 cell proliferation inhibition ratio” is calculated, it is contemplated that as the value of the ratio is larger, the selectivity to BTK over EGFR in the cells is higher.

C=CC(=O)N1CCC[C@@H](n2nc(C(=O)Nc3nc4cc(Br)ccc4o3)c3c(N)ncnc32)C1 [Example 2, (R)-1-(1-acryloylpiperidin-3-yl)-4-amino-N-(5-bromobenzo[d]oxazol-2-yl)-1H-pyrazolo[3,4-d]pyrimidine-3-carboxamide]
A431 cell proliferation inhibition ratio/TMD8 cell proliferation inhibition ratio: >1033.6

CCN(C)C/C=C/C(=O)N1CCC[C@@H](n2nc(C(=O)Nc3nc4cc(Cl)ccc4o3)c3c(N)ncnc32)C1 [Example 16, (R,E)-4-amino-N-(5-chlorobenzo[d]oxazol-2-yl)-1-(1-(4-(ethyl(methyl)amino)but-2-enoyl)piperidin-3-yl)-1H-pyrazolo[3,4-d]pyrimidine-3-carboxamide]
A431 cell proliferation inhibition ratio/TMD8 cell proliferation inhibition ratio: >16313.2

CCN(CC)C/C=C/C(=O)N1CCC[C@@H](n2nc(C(=O)Nc3nc4cc(Cl)ccc4o3)c3c(N)ncnc32)C1 [Example 17, (R,E)-4-amino-N-(5-chlorobenzo[d]oxazol-2-yl)-1-(1-(4-(diethylamino)but-2-enoyl)piperidin-3-yl)-1H-pyrazolo[3,4-d]pyrimidine-3-carboxamide]
A431 cell proliferation inhibition ratio/TMD8 cell proliferation inhibition ratio: >12345.7

CC(C)N(C)C/C=C/C(=O)N1CCC[C@@H](n2nc(C(=O)Nc3nc4cc(Cl)ccc4o3)c3c(N)ncnc32)C1 [Example 18, (R,E)-4-amino-N-(5-chlorobenzo[d]oxazol-2-yl)-1-(1-(4-(isopropyl(methyl)amino)but-2-enoyl)piperidin-3-yl)-1H-pyrazolo[3,4-d]pyrimidine-3-carboxamide]
A431 cell proliferation inhibition ratio/TMD8 cell proliferation inhibition ratio: >15625.0

Nc1ncnc2c1c(C(=O)Nc1nc3cc(Cl)ccc3o1)nn2[C@@H]1CCCN(C(=O)/C=C/CN2CCCC2)C1 [Example 19, (R,E)-4-amino-N-(5-chlorobenzo[d]oxazol-2-yl)-1-(1-(4-(pyrrolidin-1-yl)but-2-enoyl)piperidin-3-yl)-1H-pyrazolo[3,4-d]pyrimidine-3-carboxamide]
A431 cell proliferation inhibition ratio/TMD8 cell proliferation inhibition ratio: >17825.3

Nc1ncnc2c1c(C(=O)Nc1nc3cc(Cl)ccc3o1)nn2[C@@H]1CCCN(C(=O)/C=C/CN2CCCCC2)C1 [Example 20, (R,E)-4-amino-N-(5-chlorobenzo[d]oxazol-2-yl)-1-(1-(4-(piperidin-1-yl)but-2-enoyl)piperidin-3-yl)-1H-pyrazolo[3,4-d]pyrimidine-3-carboxamide]
A431 cell proliferation inhibition ratio/TMD8 cell proliferation inhibition ratio: >19120.5

C=CC(=O)N1CCC[C@@H](n2nc(C(=O)Nc3nc4cc(C)c(C)cc4o3)c3c(N)ncnc32)C1 [Example 23, (R)-1-(1-acryloylpiperidin-3-yl)-4-amino-N-(5,6-dimethylbenzo[d]oxazol-2-yl)-1H-pyrazolo[3,4-d]pyrimidine-3-carboxamide]
A431 cell proliferation inhibition ratio/TMD8 cell proliferation inhibition ratio: >10680

CN(C)C/C=C/C(=O)N1CC[C@@H](n2nc(C(=O)Nc3nc4cc(Cl)ccc4o3)c3c(N)ncnc32)C1 [Example 32, (R,E)-4-amino-N-(5-chlorobenzo[d]oxazol-2-yl)-1-(1-(4-(dimethylamino)but-2-enoyl)pyrrolidin-3-yl)-1H-pyrazolo[3,4-d]pyrimidine-3-carboxamide]
A431 cell proliferation inhibition ratio/TMD8 cell proliferation inhibition ratio: >11123.5

CCN(CC)C/C=C/C(=O)N1CC[C@@H](n2nc(C(=O)Nc3nc4cc(Cl)ccc4o3)c3c(N)ncnc32)C1 [Example 34, (R,E)-4-amino-N-(5-chlorobenzo[d]oxazol-2-yl)-1-(1-(4-(diethylamino)but-2-enoyl)pyrrolidin-3-yl)-1H-pyrazolo[3,4-d]pyrimidine-3-carboxamide]
A431 cell proliferation inhibition ratio/TMD8 cell proliferation inhibition ratio: >22471.9

CC(C)N(C)C/C=C/C(=O)N1CC[C@@H](n2nc(C(=O)Nc3nc4cc(Cl)ccc4o3)c3c(N)ncnc32)C1 [Example 35, (R,E)-4-amino-N-(5-chlorobenzo[d]oxazol-2-yl)-1-(1-(4-(isopropyl(methyl)amino)but-2-enoyl)pyrrolidin-3-yl)-1H-pyrazolo[3,4-d]pyrimidine-3-carboxamide]
A431 cell proliferation inhibition ratio/TMD8 cell proliferation inhibition ratio: >18691.6

C=CC(=O)N1CC[C@@H](n2nc(C(=O)Nc3nc4cc(C#N)ccc4o3)c3c(N)ncnc32)C1 [Example 39, (R)-1-(1-acryloylpyrrolidin-3-yl)-4-amino-N-(5-cyanobenzo[d]oxazol-2-yl)-1H-pyrazolo[3,4-d]pyrimidine-3-carboxamide]
A431 cell proliferation inhibition ratio/TMD8 cell proliferation inhibition ratio: >3510.0

C=CC(=O)N1CC[C@@H](n2nc(C(=O)Nc3nc4cc(CCOC)ccc4o3)c3c(N)ncnc32)C1 [Example 40, (R)-1-(1-acryloylpyrrolidin-3-yl)-4-amino-N-(5-(2-methoxyethyl)benzo[d]oxazol-2-yl)-1H-pyrazolo[3,4-d]pyrimidine-3-carboxamide]
A431 cell proliferation inhibition ratio/TMD8 cell proliferation inhibition ratio: >3159.6

CN(C)C/C=C/C(=O)N1CC[C@@H](n2cc(C(=O)Nc3nc4cc(Cl)ccc4o3)c3c(N)ncnc32)C1 [Example 49, (R,E)-4-amino-N-(5-chlorobenzo[d]oxazol-2-yl)-7-(1-(4-(dimethylamino)but-2-enoyl)pyrrolidin-3-yl) 7H-pyrrolo[2,3-d]pyrimidine-5-carboxamide]
A431 cell proliferation inhibition ratio/TMD8 cell proliferation inhibition ratio: >3260.5

CCN(C)C/C=C/C(=O)N1CC[C@@H](n2cc(C(=O)Nc3nc4cc(Cl)ccc4o3)c3c(N)ncnc32)C1 [Example 50, (R,E)-4-amino-N-(5-chlorobenzo[d]oxazol-2-yl)-7-(1-(4-(ethyl(methyl)amino)but-2-enoyl)pyrrolidin-3-yl) 7H-pyrrolo[2,3-d]pyrimidine-5-carboxamide]
A431 cell proliferation inhibition ratio/TMD8 cell proliferation inhibition ratio: >2767.8

CCN(CC)C/C=C/C(=O)N1CC[C@@H](n2cc(C(=O)Nc3nc4cc(Cl)ccc4o3)c3c(N)ncnc32)C1 [Example 51, (R,E)-4-amino-N-(5-chlorobenzo[d]oxazol-2-yl)-7-(1-(4-(diethylamino)but-2-enoyl)pyrrolidin-3-yl) 7H-pyrrolo[2,3-d]pyrimidine-5-carboxamide]
A431 cell proliferation inhibition ratio/TMD8 cell proliferation inhibition ratio: >2044.6

CC(C)N(C)C/C=C/C(=O)N1CC[C@@H](n2cc(C(=O)Nc3nc4cc(Cl)ccc4o3)c3c(N)ncnc32)C1 [Example 52, (R,E)-4-amino-N-(5-chlorobenzo[d]oxazol-2-yl)-7-(1-(4-(isopropyl(methyl)amino)but-2-enoyl)pyrrolidin-3-yl) 7H-pyrrolo[2,3-d]pyrimidine-5-carboxamide]
A431 cell proliferation inhibition ratio/TMD8 cell proliferation inhibition ratio: >3617.9

Nc1ncnc2c1c(C(=O)Nc1nc3cc(Cl)ccc3o1)cn2[C@@H]1CCN(C(=O)/C=C/CN2CCCC2)C1 [Example 53, (R,E)-4-amino-N-(5-chlorobenzo[d]oxazol-2-yl)-7-(1-(4-(pyrrolidin-1-yl)but-2-enoyl)pyrrolidin-3-yl) 7H-pyrrolo[2,3-d]pyrimidine-5-carboxamide]
A431 cell proliferation inhibition ratio/TMD8 cell proliferation inhibition ratio: >1535.4

Nc1ncnc2c1c(C(=O)Nc1nc3cc(Cl)ccc3o1)cn2[C@@H]1CCN(C(=O)/C=C/CN2CCCCC2)C1 [Example 54, (R,E)-4-amino-N-(5-chlorobenzo[d]oxazol-2-yl)-7-(1-(4-(piperidin-1-yl)but-2-enoyl)pyrrolidin-3-yl) 7H-pyrrolo[2,3-d]pyrimidine-5-carboxamide]
A431 cell proliferation inhibition ratio/TMD8 cell proliferation inhibition ratio: >2675.9
